Source: PMC7612079 (Science translational medicine, 2021)

Legend:
Format in all cases: biochemical
[1] = molecular target: T1, ULK1 (unc-51–like autophagy activating kinase 1) (Homo sapiens, UniProt O75385); assay: single-point kinase panel at […]; conditions: read-out: % inhibition at 1 μM
T1 sequence (O75385 1-1050): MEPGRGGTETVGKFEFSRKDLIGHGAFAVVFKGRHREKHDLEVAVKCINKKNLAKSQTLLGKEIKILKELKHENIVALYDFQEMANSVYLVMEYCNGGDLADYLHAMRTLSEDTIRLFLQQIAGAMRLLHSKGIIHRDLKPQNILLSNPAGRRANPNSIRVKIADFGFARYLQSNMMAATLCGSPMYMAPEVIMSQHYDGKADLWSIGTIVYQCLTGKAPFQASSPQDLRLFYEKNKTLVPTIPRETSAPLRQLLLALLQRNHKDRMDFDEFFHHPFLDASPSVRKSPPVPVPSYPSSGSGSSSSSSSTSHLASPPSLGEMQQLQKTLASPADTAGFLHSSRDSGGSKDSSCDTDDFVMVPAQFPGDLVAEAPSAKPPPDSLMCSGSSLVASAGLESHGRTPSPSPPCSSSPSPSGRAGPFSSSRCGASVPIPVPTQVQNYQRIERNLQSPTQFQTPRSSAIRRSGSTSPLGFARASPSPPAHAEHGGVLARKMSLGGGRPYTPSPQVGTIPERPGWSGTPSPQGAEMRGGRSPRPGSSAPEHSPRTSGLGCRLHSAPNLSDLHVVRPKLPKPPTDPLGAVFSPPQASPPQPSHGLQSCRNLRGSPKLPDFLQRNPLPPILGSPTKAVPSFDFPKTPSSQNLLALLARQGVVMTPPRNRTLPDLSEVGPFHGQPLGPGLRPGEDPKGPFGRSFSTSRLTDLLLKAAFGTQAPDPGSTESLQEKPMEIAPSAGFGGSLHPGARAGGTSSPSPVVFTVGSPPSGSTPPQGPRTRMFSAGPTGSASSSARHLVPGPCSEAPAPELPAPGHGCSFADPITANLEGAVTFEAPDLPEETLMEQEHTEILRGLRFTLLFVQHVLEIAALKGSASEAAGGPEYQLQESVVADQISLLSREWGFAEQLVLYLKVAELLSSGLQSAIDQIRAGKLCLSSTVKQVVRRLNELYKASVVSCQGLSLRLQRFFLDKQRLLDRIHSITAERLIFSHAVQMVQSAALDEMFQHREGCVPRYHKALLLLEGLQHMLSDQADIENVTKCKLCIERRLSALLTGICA

AMPK = AMPK (Homo sapiens, UniProt P54646); assay: single-point panel of […] kinases at […]; conditions: read-out: % inhibition at 1 μM
TANK-binding kinase 1 = molecular target: T2, TANK-binding kinase 1 (Homo sapiens, UniProt Q9UHD2); assay: single-point panel of […] kinases at […]; conditions: read-out: % inhibition at 1 μM
T2 sequence (Q9UHD2 1-729): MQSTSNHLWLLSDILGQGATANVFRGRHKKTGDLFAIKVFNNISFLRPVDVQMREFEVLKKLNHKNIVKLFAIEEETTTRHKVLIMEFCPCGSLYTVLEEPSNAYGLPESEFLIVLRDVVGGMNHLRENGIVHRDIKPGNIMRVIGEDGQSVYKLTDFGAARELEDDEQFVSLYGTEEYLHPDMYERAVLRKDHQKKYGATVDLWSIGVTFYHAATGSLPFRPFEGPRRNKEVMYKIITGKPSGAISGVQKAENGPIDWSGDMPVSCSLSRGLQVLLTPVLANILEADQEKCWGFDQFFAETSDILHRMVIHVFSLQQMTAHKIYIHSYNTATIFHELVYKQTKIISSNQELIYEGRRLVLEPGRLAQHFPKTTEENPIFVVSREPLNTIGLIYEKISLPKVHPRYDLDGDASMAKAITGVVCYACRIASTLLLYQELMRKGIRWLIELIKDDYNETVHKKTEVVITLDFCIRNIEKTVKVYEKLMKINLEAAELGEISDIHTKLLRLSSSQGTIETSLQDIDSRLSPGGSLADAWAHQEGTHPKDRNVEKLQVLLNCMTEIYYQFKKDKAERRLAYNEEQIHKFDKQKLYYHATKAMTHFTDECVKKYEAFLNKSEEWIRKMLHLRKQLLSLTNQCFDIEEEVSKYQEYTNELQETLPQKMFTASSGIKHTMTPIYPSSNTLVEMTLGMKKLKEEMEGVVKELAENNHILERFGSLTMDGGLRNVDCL

ULK2 = molecular target: T3, ULK2 (Homo sapiens, UniProt Q8IYT8); assay: single-point kinase panel at […]
T3 sequence (Q8IYT8 1-1036): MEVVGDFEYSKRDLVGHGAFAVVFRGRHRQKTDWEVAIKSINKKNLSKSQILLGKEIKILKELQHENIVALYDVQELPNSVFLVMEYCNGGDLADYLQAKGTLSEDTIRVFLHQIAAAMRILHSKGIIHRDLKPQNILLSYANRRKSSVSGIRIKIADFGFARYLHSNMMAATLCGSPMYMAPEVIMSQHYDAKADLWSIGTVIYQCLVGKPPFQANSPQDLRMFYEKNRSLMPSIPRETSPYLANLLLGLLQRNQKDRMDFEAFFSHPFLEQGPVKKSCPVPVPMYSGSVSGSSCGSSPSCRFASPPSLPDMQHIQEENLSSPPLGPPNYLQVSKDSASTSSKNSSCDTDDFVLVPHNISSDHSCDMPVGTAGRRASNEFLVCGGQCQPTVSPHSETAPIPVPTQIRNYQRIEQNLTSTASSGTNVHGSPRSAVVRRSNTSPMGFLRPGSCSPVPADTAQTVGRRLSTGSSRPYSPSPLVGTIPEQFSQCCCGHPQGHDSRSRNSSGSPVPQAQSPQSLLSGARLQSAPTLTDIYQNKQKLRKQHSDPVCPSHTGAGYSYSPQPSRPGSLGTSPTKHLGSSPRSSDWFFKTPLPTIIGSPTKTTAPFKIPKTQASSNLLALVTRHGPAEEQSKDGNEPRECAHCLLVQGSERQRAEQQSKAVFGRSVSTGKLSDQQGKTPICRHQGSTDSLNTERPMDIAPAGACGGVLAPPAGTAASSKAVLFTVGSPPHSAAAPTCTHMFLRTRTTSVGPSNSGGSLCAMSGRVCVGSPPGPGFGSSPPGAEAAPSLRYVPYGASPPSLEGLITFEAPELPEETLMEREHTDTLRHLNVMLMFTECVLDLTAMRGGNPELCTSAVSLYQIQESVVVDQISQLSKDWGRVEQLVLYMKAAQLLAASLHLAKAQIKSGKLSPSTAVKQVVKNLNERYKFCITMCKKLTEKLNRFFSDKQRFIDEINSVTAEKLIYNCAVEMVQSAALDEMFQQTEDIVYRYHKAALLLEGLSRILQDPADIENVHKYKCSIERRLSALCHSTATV

[2] = molecular target: T1, ULK1 (unc-51–like autophagy activating kinase 1); assay: radiometric […] kinase assay with myelin basic protein, […] ATP

Chain of AMPK (P54646 whole entry): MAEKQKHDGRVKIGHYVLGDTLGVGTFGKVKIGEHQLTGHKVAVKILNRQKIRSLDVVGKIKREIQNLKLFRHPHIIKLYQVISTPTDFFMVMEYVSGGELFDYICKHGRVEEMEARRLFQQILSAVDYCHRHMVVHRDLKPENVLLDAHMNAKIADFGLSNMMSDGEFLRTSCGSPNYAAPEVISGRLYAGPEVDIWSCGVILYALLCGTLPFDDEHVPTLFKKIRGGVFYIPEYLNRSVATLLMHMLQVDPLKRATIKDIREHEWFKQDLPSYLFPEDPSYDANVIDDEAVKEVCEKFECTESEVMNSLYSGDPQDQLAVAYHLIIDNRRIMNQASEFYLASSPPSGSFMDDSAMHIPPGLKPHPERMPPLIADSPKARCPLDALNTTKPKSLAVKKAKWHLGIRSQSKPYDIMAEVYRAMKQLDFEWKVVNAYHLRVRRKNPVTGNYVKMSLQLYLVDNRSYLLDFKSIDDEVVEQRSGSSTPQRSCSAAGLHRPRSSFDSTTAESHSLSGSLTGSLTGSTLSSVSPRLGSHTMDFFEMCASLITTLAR
Chain of AMPK (Q9Y478 2-270 partner): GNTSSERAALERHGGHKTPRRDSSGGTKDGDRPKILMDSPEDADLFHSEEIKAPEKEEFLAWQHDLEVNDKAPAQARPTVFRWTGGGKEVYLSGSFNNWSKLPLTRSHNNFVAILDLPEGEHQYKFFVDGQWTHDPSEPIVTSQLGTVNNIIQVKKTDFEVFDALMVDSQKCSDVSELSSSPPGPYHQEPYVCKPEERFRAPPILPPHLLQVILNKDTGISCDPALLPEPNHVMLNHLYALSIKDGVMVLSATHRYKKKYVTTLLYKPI
Chain of AMPK (P54619 whole entry partner): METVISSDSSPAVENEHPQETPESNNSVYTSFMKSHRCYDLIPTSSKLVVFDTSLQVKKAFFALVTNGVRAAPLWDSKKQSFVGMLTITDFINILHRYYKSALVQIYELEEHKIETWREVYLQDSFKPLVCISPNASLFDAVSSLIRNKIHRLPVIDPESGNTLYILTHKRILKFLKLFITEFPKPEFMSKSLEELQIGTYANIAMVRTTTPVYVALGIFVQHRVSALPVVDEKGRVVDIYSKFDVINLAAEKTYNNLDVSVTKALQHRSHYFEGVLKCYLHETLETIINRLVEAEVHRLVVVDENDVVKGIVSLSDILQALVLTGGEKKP

inhibition at 1 µM [1] [%] | inhibition at 1 µM (AMPK) [%] | inhibition at 1 µM (TANK-binding kinase 1) [%] | inhibition at 1 µM (ULK2; read-out: % inhibition at 1 μM) [%] | IC50 [2] [nM] | % inhibition at 1 μM (ULK2) | Compound
> 90 | > 90 | > 90 | > 90 | – | – | CN1CCc2cc(Nc3ncc(C4CC4)c(NCCCNC(=O)C4CCC4)n3)ccc2C1 [MRT68921]
– | – | – | – | 1.6 | > 90 | MRT403
